The values below come from patent publication US20190151312A1, “HEPARAN SULFATE BIOSYNTHESIS INHIBITORS FOR THE TREATMENT OF DISEASES” (BioMarin Pharmaceutical Inc., priority 2014, published 2019).

The subject of assay [1] is GM01896 cells (MPS II dermal fibroblasts). The assay is described as follows: Assay 1: MPS cellular assay, MPS II (heparan sulfate disaccharide biomarkers by LC-MS). Type of assay: cell-based, human. The settings on record: Assay 1 for MPS II, heparan sulfate disaccharide biomarkers (I2a4, I2a6, I2S0 and/or I2S6), read-out: IC50 Range. In outline:
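Heparan sulfate disaccharide biomarkers quantified by LC-MS after heparinase I/II/III digestion and isotopic aniline labelling, using GM01896 MPS II fibroblasts exposed to compound (at or below 30 μM, 4-21 days). Values given as IC50 by curve fitting; cell viability checked with alamar blue or ATP.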

For assay [2], the system named is cultured primary human fibroblast from MPS patients. The settings on record: cited from earlier work.

Each structure is given as a SMILES string. Where two headings read alike, the source gives them in different places.

As for `Cn1ncc2ccc(-c3cc(Nc4ccc(-c5ncc(C(F)(F)F)[nH]5)cc4)nc(N4CCOCC4)n3)cc21` [[6-(1-methyl(1H-indazol-6-yl))-2-morpholin-4-ylpyrimidin-4-yl]{4-[5-(trifluoromethyl)imidazol-2-yl]phenyl}amine], in assay [1] (Homo sapiens, Fibroblast), the IC50 was in the range of 500 to 1000 nM.
The same measure, in the same setting: with `Cc1nc2cc(-c3cc(Nc4ccc(Cl)cc4)nc(N4CCOCC4)n3)ccc2n1C1COC1` [(4-chlorophenyl)[6-(2-methyl-1-oxetan-3-ylbenzimidazol-5-yl)-2-morpholin-4-ylpyrimidin-4-yl]amine] the figure was below 500 nM.
Still for that read-out and setting: with `Cn1cnc2ccc(-c3cc(Nc4ccc(C(N)=O)cc4)nc(N4CCOCC4)n3)cc21` [4-{[6-(1-methylbenzimidazol-6-yl)-2-morpholin-4-ylpyrimidin-4-yl]amino}benzamide] the figure was 500 to 1000 nM; with `Clc1ccc(Nc2cc(-c3ccc4cnn(C5CC5)c4c3)nc(N3CCOCC3)n2)cc1` [(4-chlorophenyl)[6-(1-cyclopropyl(1H-indazol-6-yl))-2-morpholin-4-ylpyrimidin-4-yl]amine], 1000 to 5000 nM; with `CN(C)CCc1nc2cc(Cc3cc(Nc4ccc(Cl)cc4)nc(N4CCOCC4)n3)ccc2[nH]1` [[2-(6-{6-[(4-chlorophenyl)amino]-2-morpholin-4-ylpyrimidin-4-yl}methylbenzimidazol-2-yl)ethyl]dimethylamine], below 500 nM.
Still for that read-out and setting: with `Cn1nc(CCCN)c2ccc(-c3cc(Nc4ccc(Cl)cc4)nc(N4CCOCC4)n3)cc21` [{6-[3-(3-aminopropyl)-1-methyl(1H-indazol-6-yl)]-2-morpholin-4-ylpyrimidin-4-yl}(4-chlorophenyl)amine] the figure was 1000 to 5000 nM; with `CNC(=O)c1ccc(Nc2cc(-c3ccc4cn(CCN(C)C)nc4c3)nc(N3CCOCC3)n2)cc1` [{4-[(6-{2-[2-(dimethylamino)ethyl](2H-indazol-6-yl)}-2-morpholin-4-ylpyrimidin-4-yl)amino]phenyl}-N-methylcarboxamide], below 500 nM; with `Cn1ncc2ccc(-c3cc(Nc4ccc(S(N)(=O)=O)cc4)nc(N4CCOCC4)n3)cc21` [4-{[6-(1-methyl(1H-indazol-6-yl))-2-morpholin-4-ylpyrimidin-4-yl]amino}benzenesulfonamide], 1000 to 5000 nM.
`Cc1nnc(-c2ccc(Nc3cc(-c4ccc5nc(C)n(CC6CC6)c5c4)nc(N4CCOCC4)n3)cc2)[nH]1` [{6-[1-(cyclopropylmethyl)-2-methylbenzimidazol-6-yl]-2-morpholin-4-ylpyrimidin-4-yl}[4-(5-methyl(4H-1,2,4-triazol-3-yl))phenyl]amine]: the concentration for half-maximal inhibition (IC50) in assay [1] (Homo sapiens, Fibroblast) was below 500 nM.
The same measure, in the same setting: with `Clc1ccc(Nc2cc(-c3ccc4c(cnn4CCN4CCOCC4)c3)nc(N3CCOCC3)n2)cc1` [(4-chlorophenyl){2-morpholin-4-yl-6-[1-(2-morpholin-4-ylethyl)(1H-indazol-5-yl)]pyrimidin-4-yl}amine] the figure was 1000 to 5000 nM; with `CNC(=O)c1ccc(Nc2cc(-c3ccc4cnn(CCN5CCCC5)c4c3)nc(N3CCOCC3)n2)cc1` [N-methyl[4-({2-morpholin-4-yl-6-[1-(2-pyrrolidinylethyl)(1H-indazol-6-yl)]pyrimidin-4-yl}amino)phenyl]carboxamide], 500 to 1000 nM.
Same read-out and setting: with `Cn1ncc2ccc(-c3cc(Nc4ccc(-c5c[nH]cn5)cc4)nc(N4CCOCC4)n3)cc21` [(4-imidazol-4-ylphenyl)[6-(1-methyl(1H-indazol-6-yl))-2-morpholin-4-ylpyrimidin-4-yl]amine] the figure was 500 to 1000 nM; with `Cn1nc(CCCCO)c2ccc(-c3cc(Nc4ccc(Cl)cc4)nc(N4CCOCC4)n3)cc21` [4-(6-{6-[(4-chlorophenyl)amino]-2-morpholin-4-ylpyrimidin-4-yl}-1-methyl-1H-indazol-3-yl)butan-1-ol], 1000 to 5000 nM; with `Cc1cn(C)c2cc(Nc3cc(-c4ccc5c(CCN6CCOCC6)nn(C)c5c4)nc(N4CCOCC4)n3)ccc12` [(1,3-dimethylindol-6-yl){6-[1-methyl-3-(2-morpholin-4-ylethyl)(1H-indazol-6-yl)]-2-morpholin-4-ylpyrimidin-4-yl}amine], 500 to 1000 nM.
As for `Cn1nc(N2CCOCC2)c2ccc(-c3cc(Nc4ccc(Cl)cc4)nc(N4CCOCC4)n3)cc21` [(4-chlorophenyl)[6-(1-methyl-3-morpholin-4-yl(1H-indazol-6-yl))-2-morpholin-4-ylpyrimidin-4-yl]amine], in assay [1], the IC50 was in the range of 1000 to 5000 nM.
As to `[Na+].[O-][Cl+2]([O-])[O-]` [sodium chlorate], the “effect on synthesis of PAPs (sulfate donor)” value in assay [2] (30-60 mM sodium chlorate) is given as “inhibits the synthesis of PAPs”. Moreover, the “sulfation of heparan sulfate produced by cells” value in assay [2] (cells grown in the presence of sodium chlorate) is reported as “reduced sulfation”.
In the case of `Cn1ncc2ccc(-c3cc(Nc4ccc(-c5[nH]ncc5F)cc4)nc(N4CCOCC4)n3)cc21` [[4-(4-fluoropyrazol-5-yl)phenyl][6-(1-methyl(1H-indazol-6-yl))-2-morpholin-4-ylpyrimidin-4-yl]amine], the concentration for half-maximal inhibition (IC50) in assay [1] (Homo sapiens, Fibroblast) was in the range of 1000 to 5000 nM.
On the same count and under the same terms, with `CNC(=O)c1ccc(Nc2cc(-c3ccc4cnn(C5CC5)c4c3)nc(N3CCOCC3)n2)cn1` [(5-{[6-(1-cyclopropyl(1H-indazol-6-yl))-2-morpholin-4-ylpyrimidin-4-yl]amino}(2-pyridyl))-N-methylcarboxamide] the figure was below 500 nM.
As for `CN(C)CCn1cnc2cc(-c3cc(Nc4ccc(Cl)cc4)nc(N4CCOCC4)n3)ccc21` [[2-(5-{6-[(4-chlorophenyl)amino]-2-morpholin-4-ylpyrimidin-4-yl}benzimidazolyl)ethyl]dimethylamine], in assay [1], the half-maximal inhibitory concentration (IC50) fell in the range of 1000 to 5000 nM.
Consider `CN1CCN(CCn2ncc3ccc(-c4cc(Nc5ccc(Cl)cc5)nc(N5CCOCC5)n4)cc32)CC1` [(4-chlorophenyl)(6-{1-[2-(4-methylpiperazinyl)ethyl](1H-indazol-6-yl)}-2-morpholin-4-ylpyrimidin-4-yl)amine], for which the IC50 in assay [1] (Homo sapiens, Fibroblast) lay within 500 to 1000 nM.
On the same count and under the same terms, with `Cc1nn(C)c2cc(-c3cc(Nc4ccc5cn[nH]c5c4)nc(N4CCOCC4)n3)ccc12` [1H-indazol-6-yl[6-(1,3-dimethyl(1H-indazol-6-yl))-2-morpholin-4-ylpyrimidin-4-yl]amine] the figure was 1000 to 5000 nM; with `Cn1nc(CCN2CCCC2)c2ccc(-c3cc(Nc4ccc(Cl)cc4)nc(N4CCOCC4)n3)cc21` [(4-chlorophenyl){6-[1-methyl-3-(2-pyrrolidinylethyl)(1H-indazol-6-yl)]-2-morpholin-4-ylpyrimidin-4-yl}amine], 500 to 1000 nM.
On the same count and under the same terms, with `CNC(=O)c1ccc(Nc2cc(-c3ccc4ncn(CCN(C)C)c4c3)nc(N3CCOCC3)n2)cc1` [{4-[(6-{1-[2-(dimethylamino)ethyl]benzimidazol-6-yl}-2-morpholin-4-ylpyrimidin-4-yl)amino]phenyl}-N-methylcarboxamide] the figure was below 500 nM; with `CNC(=O)c1ccc(Nc2cc(-c3ccc4ncn(C5CC5)c4c3)nc(N3CCOCC3)n2)cc1` [(4-{[6-(1-cyclopropylbenzimidazol-6-yl)-2-morpholin-4-ylpyrimidin-4-yl]amino}phenyl)-N-methylcarboxamide], below 500 nM; with `Cn1cnc2cc(-c3cc(Nc4ccc(Cl)cc4)nc(N4CCOCC4)n3)ccc21` [(4-chlorophenyl)[6-(1-methylbenzimidazol-5-yl)-2-morpholin-4-ylpyrimidin-4-yl]amine], 500 to 1000 nM.
On the same count and under the same terms, with `Cc1nn(C)c2cc(-c3cc(Nc4ccc(-c5cc[nH]c5)cc4)nc(N4CCOCC4)n3)ccc12` [[6-(1,3-dimethyl(1H-indazol-6-yl))-2-morpholin-4-ylpyrimidin-4-yl](4-pyrrol-3-ylphenyl)amine] the figure was 500 to 1000 nM; with `COc1cc(Nc2cc(-c3ccc4c(c3)ncn4C)nc(N3CCOCC3)n2)ccn1` [(2-methoxy(4-pyridyl))[6-(1-methylbenzimidazol-5-yl)-2-morpholin-4-ylpyrimidin-4-yl]amine], 1000 to 5000 nM.
On to `Cc1c(C)n(C)c2cc(Nc3cc(-c4ccc5c(CCN6CCOCC6)nn(C)c5c4)nc(N4CCOCC4)n3)ccc12` [{6-[1-methyl-3-(2-morpholin-4-ylethyl)(1H-indazol-6-yl)]-2-morpholin-4-ylpyrimidin-4-yl}(1,2,3-trimethylindol-6-yl)amine], for which the IC50 in assay [1] (Homo sapiens, Fibroblast) was 500 to 1000 nM.
On to `Cn1nc(Cl)c2ccc(-c3cc(Nc4ccc(Cl)cc4)nc(N4CCOCC4)n3)cc21` [[6-(3-chloro-1-methyl(1H-indazol-6-yl))-2-morpholin-4-ylpyrimidin-4-yl](4-chlorophenyl)amine], for which, in assay [1] (Homo sapiens, Fibroblast), the half-inhibitory concentration (IC50) fell in the range of 1000 to 5000 nM.
Still for that read-out and setting: with `Cn1cc(-c2ccc(Nc3cc(-c4ccc5cnn(C)c5c4)nc(N4CCOCC4)n3)cc2)nn1` [[4-(1-methyl(1,2,3-triazol-4-yl))phenyl][6-(1-methyl(1H-indazol-6-yl))-2-morpholin-4-ylpyrimidin-4-yl]amine] the figure was 1000 to 5000 nM.
